Experimental data reported in US10202604B2, “Methods of using microRNA-141” (Stemirna Therapeutics Co., Ltd., priority 2016, dated 2019).
Values joined by “and” are separate entries in the source; they are usually repeats but may differ in a detail not shown here. Identical values can stand only once.

Legend:
Format in all cases: cell-based, human
[1] = system: RhoA; test: Rho family GTPase activity assay (G-LISA); settings: Du145 cells, Lenti-141 MOI 10, 48 h
Description: (§1) Du145 cells transfected with NC or miR-141 oligos at the two doses and time intervals indicated were used in Western blotting. Indicated below are relative expression levels (normalized to respective GAPDH and compared to NC) of each protein determined by densitometric scanning of the individual bands. […] Bars, mean±SD. *P<0.05; **P<0.01. […] Du145 cells were co-transfected with NC or miR-141 oligos (30 nM) in combination with pcDNA3.1 (control) vector or pcDNA-RAC1 or pcDNA-CDC42 expression vector. After 48 h, cells were harvested for invasion assays. […] Du145 cells were infected with Lenti-141 or control lentivirus (MOI 10, 48 h) and then harvested to measure the Rho GTPase activities. Bars, mean±SD. *P<0.05. […] Du145 cells were transfected with the antisense oligos to NC or miR-141 (anti-141; 30 nM) and then used in invasion assays (FIG. 5E). In FIG. 5F and FIG. 5G Du145 cells were transfected with 10 nM of scramble siRNA control (siCon) or siRNAs targeting RAC1 (FIG. 5F) or CDC42 (FIG. 5G), either alone or in combination of anti-141 (30 nM). 48 h later, cells were harvested for invasion assays. Bars, mean±SD. *P<0.05; **P<0.01.
(§2) The activity of Rho family of small GTPases including RhoA, RAC1 and CDC42 were detected using G-LISA small G-protein activation assays per the manufacturer's instructions (Cytoskeleton, Inc., Denver, Colo.; catalog# BK135).

[2] = system: RAC1; test: Rho family GTPase activity assay (G-LISA); settings: Du145 cells, Lenti-141 MOI 10, 48 h
Description: as §1, §2

[3] = system: CDC42; test: Rho family GTPase activity assay (G-LISA); settings: Du145 cells, Lenti-141 MOI 10, 48 h
Description: as §1, §2

[4] = system: LAPC9 cells; test: Whole-genome RNA-Seq
Description: (§3) Du145 and LAPC9 cells were transfected with 30 nM of miR-141 or negative control oligos for 48 h. Total RNA was purified using RNeasy mini kit (Qiagen, Hilden, Germany). The overexpression of miR-141 was validated by qPCR. 100 ng of total RNA samples was then converted to cDNA using a NuGEN Ovation RNA-Seq System v2 according to the manufacturer's protocol (NuGEN, San Carlos, Calif.). NuGEN-amplified double-stranded cDNAs were fragmented into ˜180 base pair (bp) using a Covaris system (Covaris, Woburn, Mass.). Fragmented cDNAs were run on a SPRI-TE library construction system (Beckman Coulter, Fullerton, Calif.), and during the adaptor ligation step, uniquely indexed NEXTflex adapters (Bioo Scientific, Austin, Tex.) were used for each of the samples to allow for multiplexing. Adapter-ligated libraries were enriched by PCR using a KAPA library amplification kit (KAPA Biosystems, Wilmington, Mass.) (1 cycle at 98° C. for 45 seconds; 7 cycles at 98° C. for 15 seconds, 65° C. for 30 seconds, and 72° C. for 30 seconds; 1 cycle at 72° C. for 1 minute), and purified with AMPureXP beads (Beckman Coulter, Pasadena, Calif.). The purified libraries were quantified using a KAPA library quantification kit. The libraries were loaded on cBot (Illumina, San Diego, Calif.) at final concentration of […] to perform cluster generation, followed by 2×76 bp sequencing on HiSeq 2000 (Illumina, San Diego, Calif.).
(§4) Sequencing reads were mapped to reference human genome sequence ([…] [hg19] assembly by TopHat (Version 2.0.6). The number of fragments in each known gene from RefSeq database (downloaded from UCSC Genome Browser on Mar. 9, 2012) was enumerated using htseq-count from HTSeq package (version 0.5.4p9). Genes with less than 10 fragments in all the samples were removed before differential expression analysis. The differential expression between conditions was statistically assessed by R/Bioconductor package edgeR (version 3.0.8). Genes with FDR (false discovery rate) of ≤0.05 and >200 bp were called as differentially expressed.
(§5) For Gene Ontology (GO) analysis, IPA (Ingenuity Pathway Analysis; Qiagen, Valencia, Calif.) and GSEA (Gene Set Enrichment Analysis; Broad Institute) were performed. The standard procedure was followed (www.broadinstitute.org/gsea/doc/GSEAUserGuideFrame.html) as described by GSEA user guide and used curated gene set C2 of the Molecular Signature Database (MSigDB) version 4.0 to compute overlaps between gene set and gene sets in MSigDB. Some of the datasets presented in the text are annotated here.
(§6) The authors' in-house scripts (12) was utilized for sequence alignment and peak calling. The miR-200a CLIP-Seq results containing the binding information were further extracted and merged with Du145 or LAPC9 RNA-Seq data by gene symbol.

[5] = system: Du145 cells; test: Whole-genome RNA-Seq
Description: as §3, §4, §5, §6

[6] = merged with miR-200a CLIP-Seq data

Substance: miR-141: miR-141 mirVana mimics (Life Technologies); microRNA-141 oligonucleotide may have SEQ ID NO: 1; in some experiments over-expressed by lentiviral vectors (UAACACUGUCUGGUAAAGAUGG; listed as RNA, further chemistry not given here) [miR-141 mirVana mimics (Life Technologies); in some experiments over-expressed by lentiviral vectors]
- GTPase activity of RhoA [1]: not
- GTPase activity of RAC1 [2]: suppressed
- GTPase activity of CDC42 [3]: suppressed
- TGFB2, ZEB1, MAP2K4, VIM, NYH10, FN1 and many other mesenchymal genes [4]: downregulated
- epithelial markers including E-Cadherin, Claudin members and KRTs [4]: prominently upregulated
- down-regulated genes ([4]; FDR<0.05): 459
- up-regulated genes ([4]; FDR<0.05): 265
- putative direct targets of miR-141 (genes) ([4]; RNA-Seq merged with miR-200a CLIP-Seq data): 157 and ~150
- TGFB2, ZEB1, MAP2K4, and VIM expression [5]: downregulated
- ZEB2, TWIST2, and SANI2 expression [5]: inconsistent changes
- epithelial markers including E-Cadherin, Claudin family members and cytokeratins (KRT) [5]: strongly induced
- down-regulated genes ([5]; FDR<0.05): 949
- up-regulated genes ([5]; FDR<0.05): 1,304
- transcripts having binding sites to miR-200a/miR-141 ([5]; RNA-Seq DEGs merged with miR-200a CLIP-Seq data): 532
- down-regulated transcripts having binding sites to miR-200a/miR-141 [5, 6]: 263
- upregulated transcripts having binding sites to miR-200a/miR-141 [5, 6]: 269
